According to paper PMC10989073, “Antineoplastic effect of compounds C14 and P8 on TNBC and radioresistant TNBC cells by stabilizing the K-Ras4B^G13D/PDE6δ complex” (Frontiers in Oncology, 2024):
Where two headings read alike, the source gives them in different places.

Columns and labels:
Assay type in all cases: cell-based, human
[1] = tested on: MCF-10A cells; experiment: XTT cell viability assay and IC50 determination; details: for concentration required to observe any effect on cell viability: MCF-10A control cells, statistical analysis; for IC50: XTT, ± SD
Procedure: (§1) In order to evaluate the effect of the C14 and P8 compounds over MCF-10A, MCF-7, MDA-MB-231, and […] cell lines, the IC50 of those molecules was determined. In brief, all the cell lines were seeded at a density of 15,000 cells per well in a 96-well microtiter plate (Corning) in a corresponding growth medium for 24 h. Then, cells were treated with increasing concentrations (from 0 to 200 μM) of the C14 and P8 compounds (Enamine, Kyiv, Ukraine). As a positive control, increased concentrations of cisplatin (from 0 to 200 µM) (Accord, Mexico City, Mexico) were employed. Due to that, dimethyl sulfoxide (DMSO) was used as a vehicle, and its increased concentrations were evaluated as the negative control. All the samples were maintained under growth conditions for 24 h and 48 h. At the end of each time, cell viability was determined using the XTT Cell Proliferation Kit II (Roche Applied Science, Mannheim, Germany) following the manufacturer’s protocol. The absorbance was measured in a spectrophotometer Synergy-HTX (BioTek) at a wavelength of 450–500 nm with a reference wavelength of 650 nm. Cell proliferation was expressed as a percentage of viability [(absorbance of treated cells/absorbance of untreated cells × 100)] ± SD.

[2] = tested on: MCF-7 cells; experiment: XTT cell viability assay and IC50 determination; details: ± SD
Procedure: as §1

[3] = tested on: MDA-MB-231RR cells; experiment: XTT cell viability assay and IC50 determination; details: for IC50: XTT, ± SD
Procedure: as §1

[4] = tested on: MDA-MB-231 cells; experiment: Apoptosis/necrosis assay (Annexin V–propidium iodide, flow cytometry); details: MDA-MB-231, 24 h; C14 and P8 at IC50-24, cisplatin 100 µM, doxorubicin 0.5 µM
Procedure: (§2) To determine if the C14 and P8 compounds were able to evoke cell death by apoptosis or necrosis, cell lines MCF-10A, MDA-MB-231, and MDA-MB-231RR were treated at IC50-24 for 24 h. Apoptosis and necrosis were determined using the Apoptosis/Necrosis Detection kit (Abcam, Cambridge, UK) according to the manufacturer’s instructions. In brief, approximately 500,000 cells were seeded in 6-well plates (Corning) for 24 h. Then, each cell line was treated with the respective IC50-24 concentrations of C14 and P8. […] Cells were harvested and collected by centrifugation. All the samples were analyzed in triplicate using flow cytometry equipment FACSCalibur instrument (BD Biosciences, San Jose, CA, USA) at […] and 575-nm emission. Data analysis was performed using the FlowJo software (Tree Star Inc., Ashland, OR, USA). All experiments were performed in triplicate.

[5] = tested on: MDA-MB-231RR cells; experiment: as above; details: 24 h, C14 and P8 at IC50-24, cisplatin 100 µM, doxorubicin 0.5 µM
Procedure: as §2

[6] = tested on: Ras-GTP in MCF-10A cells; experiment: Ras activation pull-down assay (Raf-RBD); details: 3 h pre-treatment (C14, P8 at IC50-48H), EGF 100 ng/ml 10 min
Procedure: Subsequently, the cells were stimulated with epidermal growth factor (EGF) (100 ng/ml) for 10 minutes. Lysates (1 mg/ml) were exposed to Ras GTP-binding protein (Raf-RBD), following the manufacturer’s instructions. Experiments for each cell type and condition were repeated three times.

[7] = tested on: cyclin D1 and GSK3β in MDA-MB-231 cells; experiment: Western blotting of cyclin D1 and GSK3β; details: MDA-MB-231, 3 h; for reduction in cyclin D1 expression: C14 and P8 at IC50-24 (Figure 7 legend), cisplatin 100 µM, doxorubicin 0.5 µM; for reduction in GSK3β expression: IC50-24 (Figure 7 legend), densitometry
Procedure: (§3) To determine the effect of the C14 and P8 compounds over the protein effectors of K-Ras4B, AKT, and ERK, immunoblotting assays were conducted with specific antibodies. In brief, MCF-10A, MDA-MB-231, and MDA-MB-231RR cells were plated in 100-mm culture dishes until 80% of confluents. Cell adhesion was allowed for 24 h. […] After pre-treatment, cells were stimulated with 100 ng/ml EGF for 10 minutes to promote AKT and ERK activation. Later, the whole-cell extracts were obtained by the lysis of the cells (Cytoskeleton) in the presence of proteases and phosphatase inhibitors. Subsequently, the protein extracts were incubated at 4°C for 40 minutes to be clarified by centrifugation for 10 minutes at 14,000 rpm, at 4°C. The protein concentration of each extract was determined by using the Precision Red Advanced Protein Assay Reagent (Cytoskeleton) Then, approximately 25 μg of protein extract was electrophoresed in 10% sodium dodecyl sulfate–polyacrylamide gel electrophoresis (SDS-PAGE) and transferred to polyvinylidene fluoride (PVDF) membranes (Millipore, Billerica, MA, USA). Blots were probed using the following primary antibodies: Total ERK (Cell Signaling, Danvers, MA, USA), pERK (Cell Signaling), Total AKT (Cell Signaling), pAKT (Cell Signaling), GSK3β (Cell Signaling), and cyclin D1 (Abcam) at a 1:1,000 dilution. As a control, an anti-GAPDH antibody (GeneTex, Irvine, CA, USA) was employed at a 1:100,000 dilution and γ-Tubulin (Invitrogen) 1:5,000. Densitometric analysis of blots was performed using the software ImageJ version 1.45 (National Institutes of Health, Bethesda, […], USA).

[8] = tested on: cyclin D1 and GSK3β in MDA-MB-231RR cells; experiment: Western blotting of cyclin D1 and GSK3β; details: 3 h; for reduction in cyclin D1: C14 and P8 at IC50-24 (Figure 7 legend), cisplatin 100 µM, doxorubicin 0.5 µM; for reduction in GSK3β expression: IC50-24 (Figure 7 legend), densitometry
Procedure: as §3

[9] = MCF-10A, 24 h, read-out: IC50-24
[10] = MCF-10A, 48 h, read-out: IC50-48

In the case of `CN(CC(=O)NC1CCOc2ccccc21)Cc1cccc(Cl)c1` (stereo not drawn) [C14, 2-[(3-chlorophenyl)-methyl-methyl-amino]-N-croman-4-yl-acetamide], the “concentration required to observe any effect on cell viability” value [1] is reported as “higher than 100 µM”, the IC50 [1, 9] is reported as greater than 200 µM and the IC50 [1, 10] is reported as greater than 200 µM. The IC50 ([2]; MCF-7, 24 h, read-out: IC50-24) was 174 ± 19 µM, the IC50 ([2]; MCF-7, 48 h, read-out: IC50-48) was 134 ± 10.5 µM and the IC50 ([3]; 24 h, read-out: IC50-24) was 128 ± 2.6 µM. For the same compound, the “concentration from which a significant inhibitory effect on viability is seen” value ([3]; 48 h) was no less than 30 µM, the IC50 ([3]; 48 h, read-out: IC50-48) was 70.6 ± 3.5 µM and the apoptosis cells [4] was “up to 18.52%”. For the same compound, the necrosis [4] was 0.56%, the apoptosis cells [5] was “up to 21.62%” and the necrosis [5] was 0.13%. The “reduction in Ras-GTP” value [6] was “approximately 40%”, the “reduction in cyclin D1 expression” value [7] was 20% and the “reduction in GSK3β expression” value [7] was “did not show an effect”. The “reduction in cyclin D1” value [8] was 40% and the “reduction in GSK3β expression” value [8] was 50%.
For `O=C(CN1CCN(c2cccc(Cl)c2)CC1)N[C@@H]1CCOc2ccccc21` [P8, 2-[4-(3-chlorophenyl)piperazin-1-yl]-N-[(4R)-chroman-4-yl]acetamide], the IC50 ([1]; Homo sapiens, MCF-10A, 24 h, read-out: IC50-24) was greater than 200 µM, the IC50 ([1]; Homo sapiens, MCF-10A, 48 h, read-out: IC50-48) was greater than 200 µM and the “concentration required to observe any effect on cell viability” value [1] was greater than 150 µM. For the same compound, the IC50 ([2]; Homo sapiens, MCF7, MCF-7, 24 h, read-out: IC50-24) was 185 ± 15.3 µM, the IC50 ([2]; Homo sapiens, MCF7, MCF-7, 48 h, read-out: IC50-48) was 104 ± 49.8 µM and the “concentration from which a significant inhibitory effect on viability is seen” value ([3]; 48 h) was no less than 10 µM. For the same compound, the IC50 ([3]; Homo sapiens, 24 h, read-out: IC50-24) was 163 ± 16.8 µM, the IC50 ([3]; Homo sapiens, 48 h, read-out: IC50-48) was 156 ± 28.4 µM and the apoptosis cells [4] was 48.5%. The necrosis [4] was 4.28%, the apoptosis cells [5] was 72% and the necrosis [5] was 1.75%. The “reduction in Ras-GTP” value [6] was “approximately 40%”, the “reduction in cyclin D1 expression” value [7] was 20% and the “reduction in GSK3β expression” value [7] was 40%. For the same compound, the “reduction in cyclin D1” value [8] was 18% and the “reduction in GSK3β expression” value [8] was 25%.
In the case of `N.N.[Cl][Pt][Cl]` [Cisplatin, cisplatin, reference compound], the IC50 [1, 9] is reported as 12 µM, the IC50 [1, 10] is reported as 5.9 ± 1.6 µM and the “reduction of cellular viability” value ([1]; MCF-10A, at low concentrations) is reported as “more than 90%”. It also gave an IC50 ([2]; MCF-7, 24 h, read-out: IC50-24) of 150 ± 32.1 µM, an IC50 ([2]; MCF-7, 48 h, read-out: IC50-48) of 67.3 ± 20.6 µM and an IC50 ([3]; 24 h, read-out: IC50-24) of 200 µM. It also gave an IC50 ([3]; 48 h, read-out: IC50-48) of 104 ± 8.7 µM, an apoptosis cells [4] of 13.71% and a necrosis [4] of 2.14%. The apoptosis cells [5] was “up to 19.13%”, the necrosis [5] was 0.40% and the “reduction in Ras-GTP” value [6] was “did not show an effect”. The “reduction in cyclin D1 expression” value [7] was 10% and the “reduction in cyclin D1” value [8] was 20%.
